The values that follow are results of earlier work, collected in US20110105488A1, “SUBSTITUTED PYRROLIDINE AND PIPERIDINE COMPOUNDS, DERIVATIVES THEREOF, AND METHODS FOR TREATING PAIN” (Chlorion Pharma, Inc., priority 2008, published 2011).

Series [1] deals with patients with post-herpetic neuralgia.
The next series has as its system clinical trial subjects. Conditions: review of multiple clinical studies.
Another series has as its system patients. The following applies: human, in vivo.

`NCC1(CC(=O)O)CCCCC1` [gabapentin]: in series [1] (8-week trials, mean baseline 6.3), the “mean endpoint pain score” value is reported as 4.2. For the same molecule, in series [1] (two placebo-controlled, parallel-group trials of 8-weeks duration), the decrease in pain is listed as roughly 33%.

For the molecule `CC(C)C[C@H](CN)CC(=O)O` [pregabalin], in the series on clinical trial subjects, the adverse effects evoked result is “significant somnolence, vertigo, and headache”. As for `NC(=O)N1c2ccccc2C=Cc2ccccc21` [carbamazepine], in the series on patients, the adverse effects evoked result is recorded as “various sensory deficits”; the “patients with rash and leucopenia” value is roughly 10%.
